Data reported in patent US20070167499A1, “Biaryl linked hydroxamates: preparation and pharmaceutical applications” (A*BIO Pte Ltd., priority 2003, published 2007).
Where two headings read alike, the source gives them in different places.

Legend:
Colo205 = test: Cell-based proliferation assay for determination of GI50 values, colon cancer cell line; settings: Homo sapiens, COLO 205; 96 h treatment, cyquant cell proliferation assay; read-out: Cellular activities GI50, Colo205
Protocol: (§1) Cell-based Proliferation assay for determination of GI50 values
(§2) Three different cancer cell lines were obtained from ATCC: Human colon cancer cell line (Colo205), human breast cancer cell lines (MDA-MB435), and human lung cancer cell line (NCl-H522). Colo205 cells and NCl-H522 were cultivated in RPMI 1640 containing 2 mM
(§3) L-Glutamine, 5% FBS, 1.0 mM Na Pyruvate. MDA-MB435 cells were cultivated in DMEM containing 2 mM L-Glutamine, 5% FBS. Colo205 cells were seeded in 96-wells plate at 2000 and 5000 cells per well respectively. MDA-MB435 and NCl-H522 cells were seeded in 96-wells plate at 6000 cells per well. The plates were incubated at 37° C., 5% CO2, for 24 h. Cells were treated with compounds at various concentrations for 96 h. Cell growth was then monitored using cyquant cell proliferation assay (Invitrogen Pte Ltd). Dose response curves were plotted to determine GI50 values for the compounds using XL-fit (ID Business Solution, Emeryville, Calif.).

HDAC8 enzyme (GST-HDAC8) = target: T1, HDAC8 enzyme (GST-HDAC8) (Homo sapiens, UniProt Q9BY41); test: In vitro HDAC assay for determination of IC50 values (BIOMOL fluorescent-based HDAC activity assay), HDAC8; type: biochemical
T1 construct: Amplification of human HDAC1 and HDAC8 coding region from this cDNA library; made in house; host or cells: SF9 insect cells (baculovirus, pFASTBAC vector)
T1 sequence (Q9BY41 1-377): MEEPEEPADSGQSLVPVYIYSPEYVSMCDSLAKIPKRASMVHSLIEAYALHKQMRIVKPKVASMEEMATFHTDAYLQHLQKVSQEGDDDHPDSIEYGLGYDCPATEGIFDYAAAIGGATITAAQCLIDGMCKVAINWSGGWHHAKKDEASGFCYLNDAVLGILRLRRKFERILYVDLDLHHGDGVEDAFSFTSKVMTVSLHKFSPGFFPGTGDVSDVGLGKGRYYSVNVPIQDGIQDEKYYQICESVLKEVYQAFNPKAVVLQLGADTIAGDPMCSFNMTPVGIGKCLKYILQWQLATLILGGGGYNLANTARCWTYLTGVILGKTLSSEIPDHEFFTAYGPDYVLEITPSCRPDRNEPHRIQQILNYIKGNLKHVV
Protocol: Recombinant GST-HDAC1 and GST-HDAC-8 Protein expression and purification
Human cDNA library was prepared using cultured SW620 cells. Amplification of human HDAC1 and HDAC8 coding region from this cDNA library was cloned separately into the baculovirus expression pDEST20 vector and pFASTBAC vector respectively (GATEWAY Cloning Technology, Invitrogen Pte Ltd). […] Recombinant baculovirus was prepared using the Bac-To-Bac method following the manufacturer's instruction (Invitrogen Pte Ltd).
Expression of GST-HDAC1 or HTGST-HDAC8 was done by infecting SF9 cells (Invitrogen Pte Ltd) with pDEST20-HDAC1 or pFASTBAC-GST-HDAC8 baculovirus at MOI=1 for 48 h. Soluble cell lysate was incubated with pre-equilibrated Glutathione Sepharose 4B beads (Amersham) at 4° C. for 2 h. The beads were washed with PBS buffer for 3 times. The GST-HDAC1 protein or GST-HDAC8 protein was eluted by elution buffer containing 50 mM Tris, pH8.0, 150 mM NaCl, 1% Triton X-100 and 10 mM or 20 mM reduced Glutathione. The purified GST-HDAC1 protein or purified GST-HDAC8 protein was dialyzed with HDAC storage buffer containing 10 mM Tris, pH7.5, 100 mM NaCl and 3 mM MgCl2. 20% Glycerol was added to purified GST-HDAC1 protein or purified GST-HDAC8 before storage at −80° C.
In vitro HDAC assay for determination of IC50 values
The assay has been carried out in 96 well format and the BIOMOL fluorescent-based HDAC activity assay has been applied. […] Flur de lys Developer was added and the reaction was incubated for 10 min. Briefly, deacetylation of the substrate sensitizes it to the developer, which then generates a fluorophore The fluorophore is excited with 360 nm light and the emitted light (460 nm) is detected on a fluorometric plate reader (Tecan Ultra Microplate detection system, Tecan Group Ltd.).
The analytical software, Prism 3.0® (GraphPad Software Inc) has been used to generate IC50 from a series of data.

[1] = tested on: acetylated H3 in Colo205 cells; test: Histone H3 acetylation assay (western-blot); type: cell-based, human; parameters: key: “Active” means accumulation of acetylated histone was observed when compared with control (without compound); settings: for Histone 3 acetylation: Colo205 cells, 0.1, 1, 5 and 10 μM, after 24 h
Protocol: Histone H3, H4 and H2A acetylation assay
A hallmark of histone deacetylase (HDAC) inhibition is the increase in the acetylation level of histones. Histone acetylation, including H3, H4 and H2A can be detected by immuno-blotting (western-blot). Colo205 cells, approximately 1.5×10^6 cells/10 cm dish, were seeded in the previously described medium, cultivated for 24 h and subsequently treated with HDAC inhibitory agents at 0.1, 1, 5 and 10 μM final concentration. […] The protein concentration was quantified using BCA method (Sigma Pte Ltd). The protein lysate was separated using 4-12% bis-tris SDS-PAGE gel (Invitrogen Pte Ltd) and was transferred onto PVDF membrane (BioRad Pte Ltd). The membrane was probed separately using primary antibody specific for acetylated H3, acetylated H4 or acetylated H2A (Upstate Pte Ltd). The detection antibody, goat anti rabbit antibody conjugated with horse radish peroxidase (HRP) was used according to the manufacturing instruction (Pierce Pte Ltd). After removing the detection antibody from the membrane, an enhanced chemiluminescent substrate for detection of HRP (Pierce Pte Ltd) was added onto the membrane. After removing the substrate, the membrane was exposed to an X-ray film (Kodak) for 1 sec-20 mins. The X-ray film was developed using the X-ray film processor. The density of each band observed on the developed film could be analysed using UVP Bioimaging software (UVP, Inc, Upland, Calif.). The values were then normalized against the density of actin in the corresponding samples to obtain the expression of the protein.

MDA-MB435 = test: Cell-based proliferation assay for determination of GI50 values, breast cancer cell line; settings: Homo sapiens, MDA-MB-435; 96 h treatment, cyquant cell proliferation assay; read-out: Cellular activities GI50, MDA-MB435
Protocol: as §1, §2, §3

[2] = 500 nM HDAC8 enzyme, 200 μM Flur de lys p53 peptide substrate, room temperature 2 h, read-out: HDAC8 Enzyme Activity, IC50

GI50 (Colo205)	IC50 (HDAC8 enzyme (GST-HDAC8))	GI50 (MDA-MB435)	IC50 (HDAC8 enzyme (GST-HDAC8); [2])	SMILES	Histone 3 acetylation (after 48 hrs) ([1]; Colo205 cells, after 48 hrs)	Histone 3 acetylation [1]
12.1 µM	0.041 µM	–	–	O=C(Cc1ccc(-c2csc(NC(=O)Cc3ccccc3)n2)s1)NO [Example 1, N-Hydroxy-2-[5-(2-phenylacetylamino-thiazol-4-yl)-thiophen-2-yl]-acetamide]	Active (after 48 hrs)	–
7.72 µM	–	4.46 µM	0.1 µM	Nc1nc(-c2ccc(/C=C/C(=O)NO)cc2)cs1 [Example 23, 3-[4-(2-Amino-thiazol-4-yl)-phenyl]-N-hydroxy-acrylamide]	–	Active
1.86 µM	–	2.66 µM	0.016 µM	O=C(NO)c1ccc(-c2ccc(CNCCc3ccccc3)cc2)s1 [Example 26, 5-[4-(Phenethylamino-methyl)-phenyl]-thiophene-2-carboxylic acid hydroxyamide]	–	Active
2.39 µM	–	1.49 µM	0.12 µM	O=C(NO)c1ccc(-c2ccc(CNCCc3ccccn3)cc2)s1 [Example 27]	–	Active
